In patent US20160009693A1, “HERBICIDAL COMPOUNDS” (SYNGENTA LIMITED, priority 2013, published 2016):

test system: Setaria faberi (SETFA); test: Herbicidal glasshouse test, pre-emergence, SETFA; assay type: in vivo; conditions: applied at 1000 g/h, evaluated after 13 days
Experimental: (§1) Seeds of a variety of test species are sown in standard soil in pots (Alopecurus myosuroides (ALOMY), Setaria faberi (SETFA), Echinochloa crus-galli (ECHCG), Solanum nigrum (SOLNI), Amaranthus retoflexus (AMARE), Ipomoea hederacea (IPOHE)). After cultivation for one day (pre-emergence) or after 8 days cultivation (post-emergence) under controlled conditions in a glasshouse (at 24/16° C., day/night; 14 hours light; 65% humidity), the plants are sprayed with an aqueous spray solution derived from the formulation of the technical active ingredient in acetone / water (50:50) solution containing 0.5% Tween 20 (polyoxyethelyene sorbitan monolaurate, CAS RN 9005-64-5). […] The test plants are then grown in a glasshouse under controlled conditions in a glasshouse (at 24/16° C., day/night; 14 hours light; 65% humidity) and watered twice daily. After 13 days for pre and post-emergence, the test is evaluated for the percentage damage caused to the plant. The biological activities are shown in the following table on a five point scale (5=80-100%; 4=60-79%; 3=40-59%; 2=20-39%; 1=0-19%).

Structure (SMILES) | PRE Application SETFA, percentage damage (five point scale)
Cc1ccc(Cl)cc1-n1c(=O)c(C(=O)Nc2nnnn2C)nn(C)c1=O [Compound 1.016] | 5 (5=80-100%)
Cn1nnnc1NC(=O)c1nn(C)c(=O)n(-c2cccc(F)c2)c1=O [Compound 1.017] | 5 (5=80-100%)
Cc1ccccc1-n1c(=O)c(C(=O)Nc2nnnn2C)nn(C)c1=O [Compound 1.018] | 5 (5=80-100%)
Cn1nnnc1NC(=O)c1nn(C)c(=O)n(-c2cccc(Cl)c2)c1=O [Compound 1.019] | 5 (5=80-100%)
Cn1nnnc1NC(=O)c1nn(C)c(=O)n(-c2ccccc2F)c1=O [Compound 1.020] | 5 (5=80-100%)

test system: Amaranthus retoflexus (AMARE); test: Herbicidal glasshouse test, post-emergence, AMARE; assay type: in vivo; conditions: applied at 1000 g/h, evaluated after 13 days
Experimental: as §1

Structure (SMILES) | POST Application AMARE, percentage damage (five point scale)
Cc1ccc(Cl)cc1-n1c(=O)c(C(=O)Nc2nnnn2C)nn(C)c1=O [Compound 1.016] | 5 (5=80-100%)
Cn1nnnc1NC(=O)c1nn(C)c(=O)n(-c2cccc(F)c2)c1=O [Compound 1.017] | 5 (5=80-100%)
Cc1ccccc1-n1c(=O)c(C(=O)Nc2nnnn2C)nn(C)c1=O [Compound 1.018] | 5 (5=80-100%)
Cn1nnnc1NC(=O)c1nn(C)c(=O)n(-c2cccc(Cl)c2)c1=O [Compound 1.019] | 5 (5=80-100%)
Cn1nnnc1NC(=O)c1nn(C)c(=O)n(-c2ccccc2F)c1=O [Compound 1.020] | 5 (5=80-100%)

test system: Ipomoea hederacea (IPOHE); test: Herbicidal glasshouse test, pre-emergence, IPOHE; assay type: in vivo; conditions: applied at 1000 g/h, evaluated after 13 days
Experimental: as §1

Structure (SMILES) | PRE Application IPOHE, percentage damage (five point scale)
Cc1ccc(Cl)cc1-n1c(=O)c(C(=O)Nc2nnnn2C)nn(C)c1=O [Compound 1.016] | 5 (5=80-100%)
Cn1nnnc1NC(=O)c1nn(C)c(=O)n(-c2cccc(F)c2)c1=O [Compound 1.017] | 5 (5=80-100%)
Cc1ccccc1-n1c(=O)c(C(=O)Nc2nnnn2C)nn(C)c1=O [Compound 1.018] | 5 (5=80-100%)
Cn1nnnc1NC(=O)c1nn(C)c(=O)n(-c2cccc(Cl)c2)c1=O [Compound 1.019] | 5 (5=80-100%)
Cn1nnnc1NC(=O)c1nn(C)c(=O)n(-c2ccccc2F)c1=O [Compound 1.020] | 5 (5=80-100%)

test system: Alopecurus myosuroides (ALOMY); test: Herbicidal glasshouse test, pre-emergence, ALOMY; assay type: in vivo; conditions: applied at 1000 g/h, evaluated after 13 days
Experimental: as §1

Structure (SMILES) | PRE Application ALOMY, percentage damage (five point scale)
Cc1ccc(Cl)cc1-n1c(=O)c(C(=O)Nc2nnnn2C)nn(C)c1=O [Compound 1.016] | 5 (5=80-100%)
Cn1nnnc1NC(=O)c1nn(C)c(=O)n(-c2cccc(F)c2)c1=O [Compound 1.017] | 5 (5=80-100%)
Cc1ccccc1-n1c(=O)c(C(=O)Nc2nnnn2C)nn(C)c1=O [Compound 1.018] | 5 (5=80-100%)
Cn1nnnc1NC(=O)c1nn(C)c(=O)n(-c2cccc(Cl)c2)c1=O [Compound 1.019] | 5 (5=80-100%)
Cn1nnnc1NC(=O)c1nn(C)c(=O)n(-c2ccccc2F)c1=O [Compound 1.020] | 5 (5=80-100%)

test system: Solanum nigrum (SOLNI); test: Herbicidal glasshouse test, pre-emergence, SOLNI; assay type: in vivo; conditions: applied at 1000 g/h, evaluated after 13 days
Experimental: as §1

Structure (SMILES) | PRE Application SOLNI, percentage damage (five point scale)
Cc1ccc(Cl)cc1-n1c(=O)c(C(=O)Nc2nnnn2C)nn(C)c1=O [Compound 1.016] | 5 (5=80-100%)
Cn1nnnc1NC(=O)c1nn(C)c(=O)n(-c2cccc(F)c2)c1=O [Compound 1.017] | 5 (5=80-100%)
Cc1ccccc1-n1c(=O)c(C(=O)Nc2nnnn2C)nn(C)c1=O [Compound 1.018] | 5 (5=80-100%)
Cn1nnnc1NC(=O)c1nn(C)c(=O)n(-c2cccc(Cl)c2)c1=O [Compound 1.019] | 5 (5=80-100%)
Cn1nnnc1NC(=O)c1nn(C)c(=O)n(-c2ccccc2F)c1=O [Compound 1.020] | 5 (5=80-100%)

test system: Solanum nigrum (SOLNI); test: Herbicidal glasshouse test, post-emergence, SOLNI; assay type: in vivo; conditions: applied at 1000 g/h, evaluated after 13 days
Experimental: as §1

Structure (SMILES) | POST Application SOLNI, percentage damage (five point scale)
Cc1ccc(Cl)cc1-n1c(=O)c(C(=O)Nc2nnnn2C)nn(C)c1=O [Compound 1.016] | 5 (5=80-100%)
Cn1nnnc1NC(=O)c1nn(C)c(=O)n(-c2cccc(F)c2)c1=O [Compound 1.017] | 5 (5=80-100%)
Cc1ccccc1-n1c(=O)c(C(=O)Nc2nnnn2C)nn(C)c1=O [Compound 1.018] | 5 (5=80-100%)
Cn1nnnc1NC(=O)c1nn(C)c(=O)n(-c2cccc(Cl)c2)c1=O [Compound 1.019] | 5 (5=80-100%)
Cn1nnnc1NC(=O)c1nn(C)c(=O)n(-c2ccccc2F)c1=O [Compound 1.020] | 5 (5=80-100%)

test system: Echinochloa crus-galli (ECHCG); test: Herbicidal glasshouse test, post-emergence, ECHCG; assay type: in vivo; conditions: applied at 1000 g/h, evaluated after 13 days
Experimental: as §1

Structure (SMILES) | POST Application ECHCG, percentage damage (five point scale)
Cc1ccc(Cl)cc1-n1c(=O)c(C(=O)Nc2nnnn2C)nn(C)c1=O [Compound 1.016] | 5 (5=80-100%)
Cn1nnnc1NC(=O)c1nn(C)c(=O)n(-c2cccc(F)c2)c1=O [Compound 1.017] | 5 (5=80-100%)
Cc1ccccc1-n1c(=O)c(C(=O)Nc2nnnn2C)nn(C)c1=O [Compound 1.018] | 5 (5=80-100%)
Cn1nnnc1NC(=O)c1nn(C)c(=O)n(-c2cccc(Cl)c2)c1=O [Compound 1.019] | 5 (5=80-100%)
Cn1nnnc1NC(=O)c1nn(C)c(=O)n(-c2ccccc2F)c1=O [Compound 1.020] | 5 (5=80-100%)

test system: Amaranthus retoflexus (AMARE); test: Herbicidal glasshouse test, pre-emergence, AMARE; assay type: in vivo; conditions: applied at 1000 g/h, evaluated after 13 days
Experimental: as §1

Structure (SMILES) | PRE Application AMARE, percentage damage (five point scale)
Cc1ccc(Cl)cc1-n1c(=O)c(C(=O)Nc2nnnn2C)nn(C)c1=O [Compound 1.016] | 5 (5=80-100%)
Cn1nnnc1NC(=O)c1nn(C)c(=O)n(-c2cccc(F)c2)c1=O [Compound 1.017] | 5 (5=80-100%)
Cc1ccccc1-n1c(=O)c(C(=O)Nc2nnnn2C)nn(C)c1=O [Compound 1.018] | 5 (5=80-100%)
Cn1nnnc1NC(=O)c1nn(C)c(=O)n(-c2cccc(Cl)c2)c1=O [Compound 1.019] | 5 (5=80-100%)
Cn1nnnc1NC(=O)c1nn(C)c(=O)n(-c2ccccc2F)c1=O [Compound 1.020] | 5 (5=80-100%)

test system: Echinochloa crus-galli (ECHCG); test: Herbicidal glasshouse test, pre-emergence, ECHCG; assay type: in vivo; conditions: applied at 1000 g/h, evaluated after 13 days
Experimental: as §1

Structure (SMILES) | PRE Application ECHCG, percentage damage (five point scale)
Cc1ccc(Cl)cc1-n1c(=O)c(C(=O)Nc2nnnn2C)nn(C)c1=O [Compound 1.016] | 5 (5=80-100%)
Cn1nnnc1NC(=O)c1nn(C)c(=O)n(-c2cccc(F)c2)c1=O [Compound 1.017] | 5 (5=80-100%)
Cc1ccccc1-n1c(=O)c(C(=O)Nc2nnnn2C)nn(C)c1=O [Compound 1.018] | 5 (5=80-100%)
Cn1nnnc1NC(=O)c1nn(C)c(=O)n(-c2cccc(Cl)c2)c1=O [Compound 1.019] | 5 (5=80-100%)
Cn1nnnc1NC(=O)c1nn(C)c(=O)n(-c2ccccc2F)c1=O [Compound 1.020] | 5 (5=80-100%)

test system: Alopecurus myosuroides (ALOMY); test: Herbicidal glasshouse test, post-emergence, ALOMY; assay type: in vivo; conditions: applied at 1000 g/h, evaluated after 13 days
Experimental: as §1

Structure (SMILES) | POST Application ALOMY, percentage damage (five point scale)
Cc1ccc(Cl)cc1-n1c(=O)c(C(=O)Nc2nnnn2C)nn(C)c1=O [Compound 1.016] | 5 (5=80-100%)
Cn1nnnc1NC(=O)c1nn(C)c(=O)n(-c2cccc(F)c2)c1=O [Compound 1.017] | 5 (5=80-100%)
Cc1ccccc1-n1c(=O)c(C(=O)Nc2nnnn2C)nn(C)c1=O [Compound 1.018] | 5 (5=80-100%)
Cn1nnnc1NC(=O)c1nn(C)c(=O)n(-c2cccc(Cl)c2)c1=O [Compound 1.019] | 5 (5=80-100%)
Cn1nnnc1NC(=O)c1nn(C)c(=O)n(-c2ccccc2F)c1=O [Compound 1.020] | 5 (5=80-100%)

test system: Ipomoea hederacea (IPOHE); test: Herbicidal glasshouse test, post-emergence, IPOHE; assay type: in vivo; conditions: applied at 1000 g/h, evaluated after 13 days
Experimental: as §1

Structure (SMILES) | POST Application IPOHE, percentage damage (five point scale)
Cc1ccc(Cl)cc1-n1c(=O)c(C(=O)Nc2nnnn2C)nn(C)c1=O [Compound 1.016] | 5 (5=80-100%)
Cn1nnnc1NC(=O)c1nn(C)c(=O)n(-c2cccc(F)c2)c1=O [Compound 1.017] | 5 (5=80-100%)
Cc1ccccc1-n1c(=O)c(C(=O)Nc2nnnn2C)nn(C)c1=O [Compound 1.018] | 5 (5=80-100%)
Cn1nnnc1NC(=O)c1nn(C)c(=O)n(-c2cccc(Cl)c2)c1=O [Compound 1.019] | 5 (5=80-100%)
Cn1nnnc1NC(=O)c1nn(C)c(=O)n(-c2ccccc2F)c1=O [Compound 1.020] | 5 (5=80-100%)

test system: Setaria faberi (SETFA); test: Herbicidal glasshouse test, post-emergence, SETFA; assay type: in vivo; conditions: applied at 1000 g/h, evaluated after 13 days
Experimental: as §1

Structure (SMILES) | POST Application SETFA, percentage damage (five point scale)
Cc1ccc(Cl)cc1-n1c(=O)c(C(=O)Nc2nnnn2C)nn(C)c1=O [Compound 1.016] | 5 (5=80-100%)
Cn1nnnc1NC(=O)c1nn(C)c(=O)n(-c2cccc(F)c2)c1=O [Compound 1.017] | 5 (5=80-100%)
Cc1ccccc1-n1c(=O)c(C(=O)Nc2nnnn2C)nn(C)c1=O [Compound 1.018] | 5 (5=80-100%)
Cn1nnnc1NC(=O)c1nn(C)c(=O)n(-c2cccc(Cl)c2)c1=O [Compound 1.019] | 5 (5=80-100%)
Cn1nnnc1NC(=O)c1nn(C)c(=O)n(-c2ccccc2F)c1=O [Compound 1.020] | 5 (5=80-100%)
